Test results from patent publication US8592483B2, “Method for treating schizophrenia” (Sucampo AG, priority 2011, dated 2013).

What was measured:
[1] = test system: PCP-disrupted PPI response in rats; experiment: PCP-disrupted PPI response in rats (schizophrenia model), intravenous administration; assay type: in vivo, Male Wistar rats; details: PCP 1.5 mg/kg s.c.; for % PPI (Mean ± SEM): 0.5 mg/kg intravenous, 15 min before PPI (immediately before PCP), pre-pulse 60 dB, startle 110 dB; for effect on PCP-disrupted PPI response: intravenous administration 15 min before PPI
Experimental: Male Wistar rats (n=135) (200-300 g) were used. Animals are housed at a standard temperature (22±1° C.) and in a light-controlled environment (lights on from 7 am to 8 pm) with ad libitum access to food and water. Animals are treated with Phencyclidine (PCP) at 1.5 mg/kg, s.c., and tested in Pre-Pulse Inhibition (PPI) 15 min later. Intravenous administration of Compound A ((−)-7-[(1R,2R)-2-(4,4-difluoro-3-oxooctyl)-5-oxocyclopentyl]heptanoic acid), Compound B ((+)-isopropyl (Z)-7-[(1R,2R,3R,5S)-3,5-dihydroxy-2-(3-oxodecyl)cyclopentyl]hept-5-enoate) and corresponding vehicle was done 15 min before PPI, which means each compound or vehicle was administered immediately before PCP injection.
(§1) PPI tests were conducted in standard startle chambers (SR-LAB Startle Response system, San Diego Instruments, USA). Before the PPI testing, the animals were habituated to handling. On the day of PPI testing, the animals were placed in the chamber and allowed to habituate for a period of 300 s. After habituation period, the rats received 12 startle trials, 12 no-stimulus trials, and 12 trials of the pre-pulse/startle trials (3×12 trials). The startle trials consists of single 110 dB white noise burst lasting 20 ms. The PPI trials consist of a pre-pulse (20 ms burst of white noise with intensities of 60 dB) followed 100 ms later by a startle stimulus (110 dB, 20 ms white noise). During the no-stimulus trial, no startle noise is presented. The resulting movement of the rat in the startle chamber is measured during 100 ms after startle stimulus onset. Basal startle amplitude is determined as the mean amplitude of the 12 startle trials. % PPI is calculated according to the formula 100−100%×(PP/P110), in which PP is the mean of the 12 pre-pulse inhibition trials (i.e., for each individual pre-pulse intensity), and P110 is the basal startle amplitude. The animals are treated with PCP s.c. and then tested in PPI 15 min later.

[2] = test system: PCP-disrupted PPI response in rats; experiment: PCP-disrupted PPI response in rats, oral administration; assay type: in vivo, Male Wistar rats; details: PCP 1.5 mg/kg s.c.; for % PPI (Mean ± SEM): 0.3 mg/kg oral, 45 min before PPI (30 min before PCP), pre-pulse 63 dB, startle 110 dB; for effect on PCP-disrupted PPI response: oral administration 45 min before PPI
Experimental: Male Wistar rats (n=135) (200-300 g) were used. Animals are housed at a standard temperature (22±1° C.) and in a light-controlled environment (lights on from 7 am to 8 pm) with ad libitum access to food and water. Animals are treated with Phencyclidine (PCP) at 1.5 mg/kg, s.c., and tested in Pre-Pulse Inhibition (PPI) 15 min later. Oral administration of Compound B ((+)-isopropyl (Z)-7-[(1R,2R,3R,5S)-3,5-dihydroxy-2-(3-oxodecyl)cyclopentyl]hept-5-enoate) and Compound C ((E)-7-[(1R,2R)-2-(4,4-difluoro-3-oxooctyl)-5-oxocyclopentyl]hept-2-enoic acid) and corresponding vehicle was done 45 min before PPI, which means each compound or vehicle was administered 30 min before PCP injection.
as §1, with “63” for “60”

SMILES	% PPI (Mean ± SEM) [1]	effect on PCP-disrupted PPI response [1]	% PPI (Mean ± SEM) [2]	effect on PCP-disrupted PPI response [2]
CCCCCCCC(=O)CC[C@@H]1[C@@H](C/C=C\CCCC(=O)OC(C)C)[C@@H](O)C[C@H]1O [Compound B, (+)-isopropyl (Z)-7-[(1R,2R,3R,5S)-3,5-dihydroxy-2-(3-oxodecyl)cyclopentyl]hept-5-enoate]	40.5 ± 4.2%	improved the PCP-disrupted PPI response	24.0 ± 5.3%	improved the PCP-disrupted PPI response
CCCCC(F)(F)C(=O)CC[C@H]1CCC(=O)[C@@H]1CCCCCCC(=O)O [Compound A, (−)-7-[(1R,2R)-2-(4,4-difluoro-3-oxooctyl)-5-oxocyclopentyl]heptanoic acid]	34.2 ± 3.9%	improved the PCP-disrupted PPI response		
CCCCC(F)(F)C(=O)CC[C@H]1CCC(=O)[C@@H]1CCCC/C=C/C(=O)O [Compound C, (E)-7-[(1R,2R)-2-(4,4-difluoro-3-oxooctyl)-5-oxocyclopentyl]hept-2-enoic acid]			24.7 ± 5.0%	improved the PCP-disrupted PPI response
